# Measurements published in patent publication US11932874B2, “Method for culturing mesenchymal stem cells using gamma-irradiated serum” (R Bio CO., Ltd., priority 2018, dated 2024).
# How the values were obtained:
# Type in all cases: cell-based
# [1] = tested on: human adipose tissue-derived stem cells; test: Adhesion of stem cells cultured in 25 kGy gamma-irradiated FBS: time at which stem cell density reached 90% (Example 4); details: 25 kGy FBS, passage 0 cells
# Method: In the same manner as described in Example 3 above, fetal bovine serum (FBS) was irradiated with 25 kGy of gamma radiation, thereby preparing gamma-irradiated FBS. Vitamin C (ascorbic acid; L-Ascorbic Acid 2-phosphate) was added to the FBS which was then irradiated with 25 kGy of gamma irradiation, thereby preparing gamma-irradiated FBS pretreated with vitamin C. The vitamin C was added to the FBS at a concentration of 1%. Then, the human adipose tissue-derived stem cells at passage 0, isolated in Example 1, were thawed and inoculated into T25 flasks at a concentration of 1.7×10^3 cells/T25 flask, and the inoculated cells were cultured with AMSC+ culture medium (R-Bio Co., Ltd.) containing the prepared gamma-irradiated FBS or gamma-irradiated FBS pretreated with vitamin C at a concentration of 5% in a CO2 incubator at 37° C. for 2 days. After 2 days of culture, the medium was removed and replaced with AMSC+ culture medium containing 5% gamma-irradiated FBS (a negative control group), medium obtained by adding vitamin C to AMSC+ culture medium containing 5% gamma-irradiated FBS (a vitamin C post-treatment test group), or AMSC+ culture medium containing 5% gamma-irradiated FBS pretreated with vitamin C (a vitamin C pre-treatment test group). Vitamin C was added to the culture medium or FBS at a concentration of 1%. A positive control group was also prepared as described in Examples 2 and 3 above. For each control group and the test group, examination was performed of the time at which the density of the stem cells reached 90% so that these cells could be sub-cultured.
# [2] = tested on: human adipose tissue-derived stem cells; test: Viability of stem cells cultured in 30 kGy gamma-irradiated FBS (Example 5): cell number, size, viability, doubling time; details: 30 kGy FBS, 4 days; for Cell No. / Cell size / DT / Viability: average (n = 3)
# Method: Fetal bovine serum (FBS) was irradiated with 30 kGy of gamma radiation, thereby preparing gamma-irradiated FBS. Vitamin C (ascorbic acid; L-Ascorbic Acid 2-phosphate) was added to the FBS which was then irradiated with 30 kGy of gamma irradiation, thereby preparing gamma-irradiated FBS pretreated with vitamin C. The vitamin C was added to the FBS at a concentration of 1%. Then, the human adipose tissue-derived stem cells at passage 3, isolated in Example 1, were thawed and inoculated into T75 flasks at a concentration of 0.5×10^6 cells/T75 flask, and the inoculated cells were cultured with AMSC+ culture medium (R-Bio Co., Ltd.) containing the prepared gamma-irradiated FBS or gamma-irradiated FBS pretreated with vitamin C at a concentration of 5% in a CO2 incubator at 37° C. for 2 days. After 2 days of culture, the medium was removed and replaced with AMSC+ culture medium containing 5% gamma-irradiated FBS (a negative control group), medium obtained by adding vitamin C to AMSC+ culture medium containing 5% gamma-irradiated FBS (a vitamin C post-treatment test group), or medium obtained by adding vitamin C to AMSC+ culture medium containing 5% gamma-irradiated FBS pretreated with vitamin C (a vitamin C pre- and post-treatment test group) (Table 4). Vitamin C was added to the culture medium or FBS at a concentration of 1%. After 4 days of culture (FIG. 6), the cell proliferation rate, cell number, viability and doubling time of the stem cells were examined. A positive control group was also prepared as described in Example 2 above. [table]
# [3] = tested on: human adipose tissue-derived stem cells; test: Differentiation into chondrocytes, TSP2 ELISA (Example 7); details: 30 KGy gamma radiation, post-treated with 1% vitamin C, passage 4
# Method: For the positive control group and vitamin C post-treatment test group of Example 6, the purity and characteristics of the stem cells at passage 4 were examined. The purity of the stem cells was examined by analyzing the expression of CD markers using FACS (FIG. 12 and Table 10), and the characteristics of the stem cells were examined by analyzing differentiation into adipocytes, osteocytes and chondrocytes (FIGS. 13 to 15). Differentiation into adipocytes was analyzed by oil red 0 staining according to the Sigma-Aldrich protocol, and differentiation into osteocytes was analyzed by alizarin red S staining according to the Lifeline Cell Tech's protocol, and differentiation into chondrocytes was analyzed by TSP2 ELISA.
# [4] = tested on: human adipose tissue-derived stem cells; test: Culture of stem cells using 25 kGy gamma-irradiated FBS with vitamin C pre- or post-treatment (Example 3): cell number, doubling time; details: for Cell No. / Doubling time: Ad-MSC (P4), 4 days of culture
# Method: After 4 days of culture, the cell proliferation rate and doubling time of the cells were examined. The viability of the cells was examined with a microscope and a hemocytometer, and the doubling time was calculated using the following equation: Doubling Time=duration×log(2)/log(final concentration)−log(initial concentration). [Equation 1] Fetal bovine serum (FBS) was irradiated with 25 kGy of gamma radiation, thereby preparing gamma-irradiated FBS. Vitamin C (ascorbic acid; L-Ascorbic Acid 2-phosphate) was added to the FBS which was then irradiated with 25 kGy of gamma irradiation, thereby preparing gamma-irradiated FBS pretreated with vitamin C. The vitamin C was added to the FBS at a concentration of 0.1% or 1%. Then, the human adipose tissue-derived stem cells at passage 3, isolated in Example 1, were thawed and inoculated into T75 flasks at a concentration of 0.5×10^6 cells/T75 flask, and the inoculated cells were cultured with AMSC+ culture medium (R-Bio Co., Ltd.) containing the prepared gamma-irradiated FBS or gamma-irradiated FBS pretreated with vitamin C at a concentration of 5% in a CO2 incubator at 37° C. for 2 days. After 2 days of culture, the medium was removed and replaced with AMSC+ culture medium containing 5% gamma-irradiated FBS (a negative control group), medium obtained by adding vitamin C to AMSC+ culture medium containing 5% gamma-irradiated FBS (a vitamin C post-treatment test group), or AMSC+ culture medium containing 5% gamma-irradiated FBS pretreated with vitamin C (a vitamin C pre-treatment test group). Vitamin C was added to the culture medium or FBS at a concentration of 0.1 or 1%. After 4 days of culture, the cell proliferation rate and doubling time of the cells were examined in the same manner as described in Example 2 above. A positive control group was also prepared as described in Example 2 above.
# [5] = 1% Vit. C pre-treatment + 1% Vit. C post-treatment
# [6] = 0.1% AA2P post-treatment + 25 KGy
# [7] = 0.1% AA2P pre-treatment + 25 KGy
# [8] = 1% AA2P post-treatment + 25 KGy
smiles,measurement,setting,value
"O=C1O[C@H]([C@@H](O)CO)C(O)=C1OP(=O)(O)O [AA2P, L-Ascorbic Acid 2-phosphate]",Density (90%): day of culture on which stem cell density reached 90%,[1]; Post-treatment with 1% Vit. C,Day 10
same,Density (90%): day of culture on which stem cell density reached 90%,"[1]; Post-treatment with 1% Vit. C, listed as vitamin C",13 days
same,Density (90%): day of culture on which stem cell density reached 90%,[1]; Pre-treatment with 1% Vit. C,Day 13
same,Density (90%): day of culture on which stem cell density reached 90%,"[1]; Pre-treatment with 1% Vit. C, listed as vitamin C",10 days
same,Cell No.,[2]; 1% Vit. C post-treatment,4.3 ×10^6 cells
same,Cell size,[2]; 1% Vit. C post-treatment,19.3 μm
same,DT,[2]; 1% Vit. C post-treatment,29.9 h
same,Viability,[2]; 1% Vit. C post-treatment,86.9%
same,Cell No.,[2]; [5],5.7 ×10^6 cells
same,Cell size,[2]; [5],20.3 μm
same,DT,[2]; [5],28.1 h
same,Viability,[2]; [5],86.5%
same,Cell No.,[2]; 1% Vit. C pre-treatment,5.8 ×10^6 cells
same,Cell size,[2]; 1% Vit. C pre-treatment,18.8 μm
same,DT,[2]; 1% Vit. C pre-treatment,27.6 h
same,Viability,[2]; 1% Vit. C pre-treatment,92.3%
same,"cell number, viability and doubling time versus positive control group",[2]; vitamin C post-treatment test group,increased to the levels of the positive control group
same,differentiation into chondrocytes versus positive control group,[3],did not differ from those of the positive control group
same,Cell No.,[4]; [6],10.6 ×10^6 cells
same,Doubling time,[4]; [6],21 h
same,Cell No.,[4]; [7],10.2 ×10^6 cells
same,Doubling time,[4]; [7],21 h
same,Cell No.,[4]; [8],14.0 ×10^6 cells
same,Doubling time,[4]; [8],19 h
same,Cell No.,[4]; 1% AA2P pre-treatment + 25 KGy,10.0 ×10^6 cells
same,Doubling time,[4]; 1% AA2P pre-treatment + 25 KGy,21 h
same,cell number and doubling time versus positive control group,"[4]; vitamin C post-treatment and pre-treatment test groups, 25 kGy FBS, 4 days",increased to the levels of the positive control group
same,microscope observation of stem cells,"[4]; vitamin C post-treatment and pre-treatment test groups, 25 kGy FBS, day 4 (FIG. 3)",levels similar to those of the positive control group
